In US20250339520A1, “COMPOSITIONS AND METHODS FOR USE IN KRAS-TARGETED THERAPIES FOR THE TREATMENT OF CANCER” (RUTGERS, THE STATE UNIVERSITY OF NEW JERSEY, priority 2024, published 2025):

Experiments:
[1] = test system: KPC PDAC cells; assay: KPC transplanted (allograft) model, KRN2 and MRTX1133; type: in vivo
Protocol: (§1) For allograft or xenograft tumor models, human or mouse PDAC cells were transplanted orthotopically or subcutaneously into recipient C57BL/6 or nude mice at a concentration of 500,000 cells per injection, as specified in the figures. The cells were resuspended in Opti-MEM and combined with growth factor-reduced Matrigel (Corning) at a 1:1 ratio.
(§2) For bioluminescence imaging, each mouse received a 100 L injection of D-Luciferin (15 mg/mL, i.p., Perkin Elmer). After a 10-minute interval, mice were imaged using the IVIS Spectrum Imaging System, and images were acquired and analyzed using Living Image 4.3 software.

[2] = test system: MIA PaCa-2; assay: MIA PaCa-2 orthotopic xenograft model; type: in vivo
Description: as §1

[3] = test system: AsPC-1; assay: Cancer spheroid formation under KRASi, SMAD4-deficient cells; type: cell-based, human; conditions: for Response of spheroid formation to TGFβ1 or TGFβRi: SMAD4-deficient, under G12Di MRTX1133, TGFβ 0.5 ng/ml, SB505124 1 μM
[4] = test system: iKPC spheroids; assay: RNA-seq / GSEA in TGFβ-treated, KRAS*-depleted iKPC spheroids; type: cell-based, mouse; conditions: inhibition of NFAT5 by KRN2
Protocol: (§3) RNA extraction from 2-D or 3-D cultured cell samples was conducted using the RNA Extraction Kit from Qiagen. Matrigel-based 3-D cells were isolated using Cell Recovery Solution from Corning. RNA concentration was assessed using NanoDrop 2000. The RNA samples were either sent for RNA-seq analysis to the Genomic Center at Rutgers or Genewiz (Azenta), or reverse transcribed for qRT-PCR analysis. The preparation of cDNA utilized 5× All-In-One RT MasterMix from Applied Biological Materials, and the PCR reactions were prepared with SYBR Green PCR Master Mix from Applied Biosystems or Bio-Rad. qRT-PCR was executed on the CFX Opus 96 (Bio-Rad), with statistical analysis conducted using GraphPad Prism. For mRNA sequencing, the parameters were NGS-75 nt Paired End, utilizing the Illumina Next Generation Sequencing instrument.
GSEA was performed using GSEA software (4.3.2).

[5] = test system: KRAS*-independent escaper tumor cells E725; assay: Escaper tumor growth, E725 cells subcutaneous in nude mice; type: in vivo, mouse; conditions: KRN2 3 mg/kg QD vs vehicle; day 28
Description: as §1

[6] = test system: iKPC PDAC cells; assay: Cancer spheroid formation, TGFβ-driven KRAS* bypass; type: cell-based, mouse
Protocol: (§4) Human cell lines MIA PaCa-2 and Panc 04.03 were purchased from the American Type Culture Collection (ATCC) and cultured in DMEM supplemented with 10% FBS and RPMI supplemented with 15% FBS and 20 Units/ml human recombinant insulin, respectively. Mouse PDAC cells were isolated from spontaneous tumors developed in iKPC or KPC mice. KPC cell lines were sustained in RPMI (Gibco) with 10% FBS (Gibco), while iKPC cell lines were cultured in RPMI with 10% Tet-approved FBS (Gibco) and doxycycline (VWR, […]). Escaper tumor cell lines were maintained in RPMI with 10% Tet-approved FBS (Gibco). For cancer spheroid culture, cells were mixed with 50 L growth factor-reduced Matrigel (Corning) and plated in 24-well low-attachment cell culture plates (Nunc). Medium was added on top of the solidified Matrigel. We monitored both spheroid size and number for spheroid growth assays. For counting spheroid numbers, we used a cut-off of 100 m in diameter or specified, depending on the time and cell type. For measuring spheroid size, ImageJ was used. Monthly mycoplasma detection (Lonza) was performed to ensure the absence of contamination.

[7] = test system: KPC [1860], Mia PaCa-2, and Panc 04.03 PDAC cells; assay: Cancer spheroid formation under KRASi; type: cell-based, mouse and human
Protocol: as §4

[8] = test system: KPC PDAC cells; assay: Orthotopically transplanted KPC PDAC model with pancreatitis induction; type: in vivo, mouse
Protocol: as §1, §2

[9] = test system: NFAT5; assay: Western blot of NFAT5 expression under KRN2; type: cell-based; conditions: PDAC cells, dose-dependent western blot
Protocol: (§5) Antibody information can be found in Table 2. Western blot analysis, IP, co-IP, and IHC staining were conducted following standard protocols. Human TMA slides were purchased from Biomax. Cell fractionation and Masson's Trichrome Staining were carried out using commercial kits, adhering to manufacturers' protocols. MS analysis of proteins pulled down by endogenous SMAD2, SMAD3, SMAD4, NFAT5, and IgG was performed by the Proteomics Core Facility at Rutgers New Jersey Medical School. Specifically, IP samples were subjected to SDS-PAGE separation. Each sample's gel lane was excised for in-gel trypsin digestion, and the resulting peptides were analyzed using LC-MS/MS on an Orbitrap Fusion Lumos Tribrid mass spectrometer coupled with the Ultimate 3000 nano-LC system (Thermo Scientific). MS/MS spectra were searched against the UniProt mouse database (55,336 sequences, downloaded 8/30/2021) using the Sequest search engine through the Proteome Discoverer platform (version 2.4) with a false discovery rate less than 1% for both proteins and peptides. Protein abundance ratios were determined using the Label-Free Quantitation (LFQ) method.

[10] = test system: KRAS*-independent escaper tumor cell lines from iKPC mice; assay: KRAS*-independent escaper spheroid growth; type: cell-based, mouse; conditions: SB505124 3 μM; hybrid or QM-like phenotype
Protocol: as §4

[11] = test system: iKPC spheroids; assay: Western blot of S100A4, NFAT5 and EMT TFs in iKPC cells/spheroids; type: cell-based, mouse; conditions: TGFβ
Protocol: as §5

[12] = test system: S100a4 promoter; assay: Luciferase reporter assay under the S100a4 promoter; type: cell-based, mouse; conditions: KRAS*-depleted iKPC PDAC cells
Protocol: Mouse S100a4 promoter was cloned into pGL4.12[iluc2CP] vector (Promega). Renilla luciferase vector (Promega) was used as the internal control. pGL4.12 vector and Renilla luciferase vector were co-transfected into iKPC PDAC cells using Lipofectamine 2000 (Invitrogen). After 24 hours, the medium was replaced, and cells were subjected to various treatments for an additional 24 hours. Subsequently, cells were collected for luciferase reporter assay using the Dual-Luciferase Reporter Assay Kit (Promega) according to the manufacturer's instructions. The firefly luciferase signal was normalized to Renilla luciferase prior to comparison among different treatment groups.

[13] = test system: iKPC PDAC cells; assay: Gene expression changes in iKPC cells post TGFβ treatment; type: cell-based, mouse
Protocol: as §3

[14] = test system: iKPC mice; assay: Pancreatitis-induced spontaneous tumor relapse in iKPC mice; type: in vivo, mouse; conditions: CAE 100 μg/kg after dox withdrawal (KRAS* off); less than or around a year after treatment; control mice remained tumor-free
Protocol: The iKPC and KPC PDAC mouse models were established and described previously^7,19. They were bred in pure C57BL/6 background. Doxycycline (dox) water (2 mg/mL, ad libitum) was administrated at 4-6 weeks of mouse age to activate transgenic KRAS^G12D expression in iKPC mice. The C57BL/6 mice and nude mice of both sexes were purchased from the Jackson Laboratory and employed to ensure matching sexes of the cell lines.
For the induction of spontaneous tumor relapse in iKPC mice, the withdrawal of dox water was performed to cease KRAS* expression when the tumor diameter reached approximately 1 cm.

## COc1ccc2c(Cc3ccccc3F)c3[n+](cc2c1OC)CCc1cc2c(cc1-3)OCO2.[Cl-] [KRN2]
[1]; KRN2 3 mg/kg QD in combination with MRTX1133 10 mg/kg QD
  Mouse allograft tumor growth: inhibition of mouse allograft tumor growth in combination with KRASi
[1]; KRN2 monotherapy 3 mg/kg QD, immune-competent mice
  Mouse survival: prolonged mouse survival
[1]; KRN2 vs vehicle control
  Tumor differentiation (H&E): induced tumor differentiation
[1]; allograft model, during treatment
  Systemic toxicity (mouse body weight): minimal systemic toxicities
[2]; KRN2 3 mg/kg QD with G12Ci MRTX849 100 mg/kg QD, day 28
  Human xenograft tumor growth: reduction of human xenograft tumor growth cooperatively with KRASi
[2]; xenograft model, during treatment
  Systemic toxicity (mouse body weight): minimal systemic toxicities
[3]; KRN2 0.3 μM + MRTX1133 0.3 μM
  KRASi persistent cancer spheroid formation, SMAD4-deficient cells: excluding SMAD4-deficient cancer spheroid formation
[4]
  Gene sets upregulated (GSEA): upregulating genes associated with fatty acid metabolism and mTORC1 signaling
  Gene signatures suppressed (GSEA): suppressed EMT and NFxB gene signatures
[5]
  Escaper tumor growth in vivo: restriction of escaper tumor growth in vivo
[6]; KRN2 1 μM, TGFβ 0.5 ng/ml, three iKPC cell lines
  TGFβ-driven KRAS* bypass (spheroid formation): impairment of TGFβ-driven KRAS* bypass
[7]; KRN2 1 μM + MRTX1133 0.03 μM (KPC), KRN2 0.3 μM + ARS-1620 5 μM (MIA PaCa-2)
  KRASi persistent cancer spheroid formation: attenuation of KRASi persistent cancer spheroid formation
[8]; MRTX1133 10 mg/kg BID + CAE 100 μg/kg + KRN2 3 mg/kg QD, KPC 1860, day 21
  Chronic pancreatitis-induced KRASi resistance: blockage of chronic pancreatitis-induced KRASi resistance
[9]
  Concentration at which Nfat5 expression is suppressed: higher than 0.3 μM

## C#Cc1c(F)ccc2cc(O)cc(-c3ncc4c(N5CC6CCC(C5)N6)nc(OC[C@@]56CCCN5C[C@H](F)C6)nc4c3F)c12 [MRTX1133]
[8]; MRTX1133 10 mg/kg BID + CAE 100 μg/kg
  Tumor growth under G12Di with pancreatitis induction: leads to resistance
[8]; MRTX1133 10 mg/kg, BID
  Tumor growth, G12Di vs vehicle: significantly reduces tumor growth

## Cc1cccc(-c2[nH]c(C(C)(C)C)nc2-c2ccc3c(c2)OCO3)n1 [SB505124]
[3]
  Response of spheroid formation to TGFβ1 or TGFβRi: did not exhibit a response
[7]; SB505124 3 μM with MRTX1133 (KPC, Panc 04.03) or ARS-1620 (MIA PaCa-2)
  Cancer spheroid formation, TGFβRi combined with KRASi: eradication of cancer spheroids
[10]
  Sensitivity of escaper spheroids to TGFβRi: hypersensitivity

## TGFβ1: recombinant human and mouse TGFβ1 (Peprotech)
[11]
  NFAT5 protein level: upregulates NFAT5
[11]; cancer spheroids
  S100A4 protein level: upregulation of S100A4
[3]
  Response of spheroid formation to TGFβ1 or TGFβRi: did not exhibit a response
[12]
  S100a4 promoter luciferase activity under TGFβ: activated S100a expression
[13]; TGFβ treatment, KRAS*-depleted iKPC PDAC cells
  Ccl2 expression elevation: more than 700 fold
[13]; TGFβ, KRAS*-depleted iKPC spheroids
  S100a4 expression: upregulated
[6]; TGFβ1 treatment, KRAS* off
  KRAS* bypass in spheroid assays: efficiently promoted several iKPC PDAC cell lines to bypass KRAS*
[6]; TGFβ1 treatment, cell lines with higher Cdkn2a and Cdkn2b expression
  KRAS* bypass in spheroid assays, iKPC cell lines 251, 276: unable to bypass KRAS*
[7]; TGFβ 0.5 ng/ml with MRTX1133 or ARS-1620, cells with intact TGFβ pathway
  Formation of cancer spheroids resistant to KRASi: actively promoted the formation of cancer spheroids resistant to KRASi

## caerulein
[14]
  CAE-treated mice that developed escaper tumors: at least 36%
[8]; CAE 100 μg/kg, C57BL/6 mice, BLI, tumor weight, tumor volume
  Tumor growth, CAE vs vehicle control: promotes KPC PDAC tumor growth
[8]; CAE;G12Di-treated tumors relative to vehicle;G12Di controls
  Tumor morphology (H&E): lost the ductal-like phenotype and were more undifferentiated
[8]; independent study, MRTX1133 10 mg/kg BID, CAE 100 μg/kg
  Tumor progression, CAE;G12Di vs vehicle;G12Di: significantly faster tumor progression
[8]; tumors under MRTX1133
  SMAD3 phosphorylation and EMT transcription factors in collected tumors (western blot): induced SMAD3 phosphorylation and the upregulation of EMT transcription factors (TFs) such as SNAI2, ZEB1, and ZEB2

## recombinant S100A4 protein: recombinant mouse S100A4 (R&D) added to the culture media
[6]; added to culture media after NFAT5 inhibition (KRN2 1 μM) or knockdown of Nfat5 or S100a4
  Rescue of TGFβ-induced, KRAS*-independent cancer spheroid growth: rescued TGFβ-induced, KRAS*-independent cancer spheroid growth
